Experimental data taken from US9024017B2, “Octahydro-cyclopentapyrrolyl antagonists of CCR2” (Janssen Pharmaceutica NV, priority 2012, dated 2015).

These compounds were tested against T1, CCR2 (Homo sapiens, UniProt P41597) (assay: MCP-1 Receptor Binding Assay in THP-1 Cells). Settings: read-out: MCP1B_v3 IC50.
T1 construct: host or cells: THP-1 (human monocytic cell line)
T1 sequence (P41597 whole entry): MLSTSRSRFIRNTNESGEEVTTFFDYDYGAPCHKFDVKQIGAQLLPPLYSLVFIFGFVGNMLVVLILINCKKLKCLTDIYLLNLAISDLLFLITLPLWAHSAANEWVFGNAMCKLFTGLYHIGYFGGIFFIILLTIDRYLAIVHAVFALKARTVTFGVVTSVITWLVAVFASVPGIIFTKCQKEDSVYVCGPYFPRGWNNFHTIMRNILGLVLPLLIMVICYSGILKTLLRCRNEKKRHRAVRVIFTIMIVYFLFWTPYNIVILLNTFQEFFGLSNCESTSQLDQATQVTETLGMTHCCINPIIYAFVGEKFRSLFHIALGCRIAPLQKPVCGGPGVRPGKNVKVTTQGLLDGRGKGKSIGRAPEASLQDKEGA
How it was run: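 Human monocytic THP-1 cells incubated 2 h at 30 °C with 0.5 nM 125I-MCP-1 and varying concentrations of test compound or unlabelled MCP-1. Cells filter-harvested and counted by scintillation; blank subtracted, compared with vehicle; nonspecific binding with 1 μM cold MCP-1.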
`COC1COCCC1N[C@@H]1C[C@H]2CN(C#N)C[C@@]2(C(=O)N2CCc3ncc(C(F)(F)F)cc3C2)C1` (relative stereo) [Example 117, (3aR,5R,6aR)-5-(((3S*,4S*)-3-Methoxytetrahydro-2H-pyran-4-yl)amino)-3a-(3-(trifluoromethyl)-5,6,7,8-tetrahydro-1,6-naphthyridine-6-carbonyl)hexahydrocyclopenta[c]pyrrole-2(1H)-carbonitrile] showed an IC50 of 5400 nM. `COC1COCCC1N[C@@H]1C[C@H]2CN(C(=O)C#CC3CC3)C[C@@]2(C(=O)N2CCc3ncc(C(F)(F)F)cc3C2)C1` (relative stereo) [Example 86, 3-Cyclopropyl-1-((3aR,5R,6aR)-5-(((3S*,4S*)-3-methoxytetrahydro-2H-pyran-4-yl)amino)-3a-(3-(trifluoromethyl)-5,6,7,8-tetrahydro-1,6-naphthyridine-6-carbonyl)hexahydro-cyclopenta[c]pyrrol-2(1H)-yl)prop-2-yn-1-one] showed an IC50 of 90 nM. For `COC1COCCC1N[C@@H]1C[C@H]2CN(C(=O)c3ncco3)C[C@@]2(C(=O)N2CCc3ncc(C(F)(F)F)cc3C2)C1` (relative stereo) [Example 70, ((3aR,5R,6aR)-5-(((3S*,4S*)-3-Methoxytetrahydro-2H-pyran-4-yl)amino)-2-(oxazole-2-carbonyl)octahydrocyclopenta[c]pyrrol-3a-yl)(3-(trifluoromethyl)-7,8-dihydro-1,6-naphthyridin-6(5H)-yl)methanone], the IC50 was 80 nM. For `CO[C@H]1COCC[C@H]1N[C@@H]1C[C@H]2CN(C(=O)OCCC3CCOCC3)C[C@@]2(C(=O)N2CCc3ncc(C(F)(F)F)cc3C2)C1` [Example 44, (3aR,5R,6aR)-2-(Tetrahydro-2H-pyran-4-yl)ethyl 5-(((3R,4R)-3-methoxytetrahydro-2H-pyran-4-yl)amino)-3a-(3-(trifluoromethyl)-5,6,7,8-tetrahydro-1,6-naphthyridine-6-carbonyl)hexahydrocyclopenta[c]pyrrole-2(1H)-carboxylate], the IC50 was 80 nM. `COC1COCCC1N[C@@H]1C[C@H]2CN(C3CCOCC3OC)C[C@@]2(C(=O)N2CCc3ccc(C(F)(F)F)cc3C2)C1` (relative stereo) [Example 105, ((3aR,5R,6aR)-2-((3S*,4S*)-3-Methoxytetrahydro-2H-pyran-4-yl)-5-(((3S*,4S*)-3-methoxytetrahydro-2H-pyran-4-yl)amino)octahydrocyclopenta[c]pyrrol-3a-yl)(7-(trifluoromethyl)-3,4-dihydroisoquinolin-2(1H)-yl)methanone] showed an IC50 of 120 nM. `NC(=O)N1C[C@@H]2C[C@@H](NC3CCOCC3)C[C@]2(C(=O)N2CCc3ncc(C(F)(F)F)cc3C2)C1` [Example 8] was tested, and the IC50 was 170 nM. With `COC(=O)N1C[C@@H]2C[C@@H](NC3CCOCC3OC)C[C@]2(C(=O)N2CCc3ncc(C(F)(F)F)cc3C2)C1` (relative stereo) [Example 34, (3aR,5R,6aR)-Methyl 5-(((3S*,4S*)-3-methoxytetrahydro-2H-pyran-4-yl)amino)-3a-(3-(trifluoromethyl)-5,6,7,8-tetrahydro-1,6-naphthyridine-6-carbonyl)hexahydrocyclopenta[c]pyrrole-2(1H)-carboxylate] the IC50 was 50 nM. Work on `COCCOC(=O)N1C[C@@H]2C[C@@H](NC3CCOCC3OC)C[C@]2(C(=O)N2CCc3ccc(C(F)(F)F)cc3C2)C1` (relative stereo) [Example 49, (3aR,5R,6aR)-2-Methoxyethyl 5-(((3S*,4S*)-3-methoxytetrahydro-2H-pyran-4-yl)amino)-3a-(7-(trifluoromethyl)-1,2,3,4-tetrahydroisoquinoline-2-carbonyl)hexahydrocyclopenta[c]pyrrole-2(1H)-carboxylate] yielded an IC50 of 10 nM. Work on `COC1COCCC1N[C@@H]1C[C@H]2CN(C(=O)N3CCOCC3)C[C@@]2(C(=O)N2CCc3ncc(C(F)(F)F)cc3C2)C1` (relative stereo) [Example 22, ((3aR,5R,6aR)-5-(((3S*,4S*)-3-Methoxytetrahydro-2H-pyran-4-yl)amino)-2-(morpholine-4-carbonyl)octahydrocyclopenta[c]pyrrol-3a-yl)(3-(trifluoromethyl)-7,8-dihydro-1,6-naphthyridin-6(5H)-yl)methanone] yielded an IC50 of 420 nM. In the case of `COC1COCCC1N[C@@H]1C[C@H]2CN(C3COC3)C[C@@]2(C(=O)N2CCc3ccc(C(F)(F)F)cc3C2)C1` (relative stereo) [Example 100, ((3aR,5R,6aR)-5-(((3S*,4S*)-3-Methoxytetrahydro-2H-pyran-4-yl)amino)-2-(oxetan-3-yl)octahydrocyclopenta[c]pyrrol-3a-yl)(7-(trifluoromethyl)-3,4-dihydroisoquinolin-2(1H)-yl)methanone], the IC50 is reported as 30 nM. Work on `COC1COCCC1N[C@@H]1C[C@H]2CN(C(=O)CCCN(C)C)C[C@@]2(C(=O)N2CCc3ncc(C(F)(F)F)cc3C2)C1` (relative stereo) [Example 78, 4-(Dimethylamino)-1-((3aR,5R,6aR)-5-(((3S*,4S*)-3-methoxytetrahydro-2H-pyran-4-yl)amino)-3a-(3-(trifluoromethyl)-5,6,7,8-tetrahydro-1,6-naphthyridine-6-carbonyl)-hexahydrocyclopenta[c]pyrrol-2(1H)-yl)butan-1-one] yielded an IC50 of 230 nM. For `COC1COCCC1N[C@@H]1C[C@H]2CN(C(=O)OCc3cccc(C#N)c3)C[C@@]2(C(=O)N2CCc3ncc(C(F)(F)F)cc3C2)C1` (stereo partly drawn) [Example 59, (3aR,5R,6aR)-3-Cyanobenzyl 5-((3-methoxytetrahydro-2H-pyran-4-yl)amino)-3a-(3-(trifluoromethyl)-5,6,7,8-tetrahydro-1,6-naphthyridine-6-carbonyl)hexahydrocyclopenta-[c]pyrrole-2(1H)-carboxylate], the IC50 was 220 nM. For `COC1COCCC1N[C@@H]1C[C@H]2CN(C(N)=O)C[C@@]2(C(=O)NCc2cc(C(F)(F)F)cc(C(F)(F)F)c2)C1` (relative stereo) [Example 12, (3aR,5R,6aR)-N^3a-(3,5-Bis(trifluoromethyl)benzyl)-5-(((3S*,4S*)-3-methoxytetrahydro-2H-pyran-4-yl)amino)hexahydrocyclopenta[c]pyrrole-2,3a(1H)-dicarboxamide], the IC50 was 100 nM. In the case of `COC1COCCC1N[C@@H]1C[C@H]2CN(C(=O)c3nccs3)C[C@@]2(C(=O)N2CCc3ncc(C(F)(F)F)cc3C2)C1` (relative stereo) [Example 81, ((3aR,5R,6aR)-5-(((3S*,4S*)-3-Methoxytetrahydro-2H-pyran-4-yl)amino)-2-(thiazole-2-carbonyl)octahydrocyclopenta[c]pyrrol-3a-yl)(3-(trifluoromethyl)-7,8-dihydro-1,6-naphthyridin-6(5H)-yl)methanone], the IC50 is reported as 40 nM. With `COC1COCCC1N[C@@H]1C[C@H]2C(=O)NC[C@@]2(C(=O)N2CCc3ncc(C(F)(F)F)cc3C2)C1` (relative stereo) [Example 118, (3aR,5R,6aR)-5-(((3S*,4S*)-3-Methoxytetrahydro-2H-pyran-4-yl)amino)-3a-(3-(trifluoromethyl)-5,6,7,8-tetrahydro-1,6-naphthyridine-6-carbonyl)hexahydro-cyclopenta[c]pyrrol-(2H)-one] the IC50 was 22800 nM. For `COC1COCCC1N[C@@H]1C[C@H]2CN(CCCc3ccccc3)C[C@@]2(C(=O)N2CCc3ncc(C(F)(F)F)cc3C2)C1` (relative stereo) [Example 103, ((3aR,5R,6aR)-5-(((3S*,4S*)-3-Methoxytetrahydro-2H-pyran-4-yl)amino)-2-(3-phenylpropyl)octahydrocyclopenta[c]pyrrol-3a-yl)(3-(trifluoromethyl)-7,8-dihydro-1,6-naphthyridin-6(5H)-yl)methanone], the IC50 was 1000 nM. Compound `COC1COCCC1N[C@@H]1C[C@H]2CN(C(=S)NCC(C)C)C[C@@]2(C(=O)N2CCc3ncc(C(F)(F)F)cc3C2)C1` (relative stereo) [Example 29, (3aR,5R,6aR)-N-Isobutyl-5-(((3S*,4S*)-3-methoxytetrahydro-2H-pyran-4-yl)amino)-3a-(3-(trifluoromethyl)-5,6,7,8-tetrahydro-1,6-naphthyridine-6-carbonyl)hexahydrocyclopenta[c]pyrrole-2(1H)-carbothioamide] has an IC50 of 30 nM. In the case of `COC1COCCC1N[C@@H]1C[C@H]2CN(C(=O)OCCNC(C)=O)C[C@@]2(C(=O)N2CCc3ccc(C(F)(F)F)cc3C2)C1` (relative stereo) [Example 55, (3aR,5R,6aR)-2-Acetamidoethyl 5-(((3S*,4S*)-3-methoxytetrahydro-2H-pyran-4-yl)amino)-3a-(7-(trifluoromethyl)-1,2,3,4-tetrahydroisoquinoline-2-carbonyl)hexahydrocyclopenta[c]pyrrole-2(1H)-carboxylate], the IC50 is reported as 10 nM. `COC1COCCC1N[C@@H]1C[C@H]2CN(C(=O)CN(C)C)C[C@@]2(C(=O)N2CCc3ncc(C(F)(F)F)cc3C2)C1` (relative stereo) [Example 76, 2-(Dimethylamino)-1-((3aR,5R,6aR)-5-(((3S*,4S*)-3-methoxytetrahydro-2H-pyran-4-yl)amino)-3a-(3-(trifluoromethyl)-5,6,7,8-tetrahydro-1,6-naphthyridine-6-carbonyl)hexahydrocyclopenta[c]pyrrol-2(1H)-yl)ethanone] gave an IC50 of 160 nM. `COC1COCCC1N[C@@H]1C[C@H]2CN(/C(N)=N/O)C[C@@]2(C(=O)N2CCc3ncc(C(F)(F)F)cc3C2)C1` (relative stereo) [Example 116, (3aR,5R,6aR,E)-N′-Hydroxy-5-(((3S*,4S*)-3-methoxytetrahydro-2H-pyran-4-yl)amino)-3a-(3-(trifluoromethyl)-5,6,7,8-tetrahydro-1,6-naphthyridine-6-carbonyl)hexahydro-cyclopenta[c]pyrrole-2(1H)-carboximidamide] gave an IC50 of 1800 nM. With `COC1COCCC1N[C@@H]1C[C@H]2CN(C=O)C[C@@]2(C(=O)N2CCc3ncc(C(F)(F)F)cc3C2)C1` (relative stereo) [Example 114, (3aR,5R,6aR)-5-(((3S*,4S*)-3-Methoxytetrahydro-2H-pyran-4-yl)amino)-3a-(3-(trifluoromethyl)-5,6,7,8-tetrahydro-1,6-naphthyridine-6-carbonyl)hexahydrocyclopenta-[c]pyrrole-2(1H)-carbaldehyde] the IC50 was 370 nM.
